According to patent EP0922101B1, “EGF-LIKE FACTOR FROM CHROMAFFIN GRANULES AND GLIA CELL-DERIVED NEUROTROPHIC FACTOR WITH SURVIVAL-PROMOTING ACTIVITY ON DAERGIC NEURONS” (BIOPHARM Gesellschaft zur biotechnologischen Entwicklung …, priority 1996, dated 1998):
Entries after “also recorded” stand apart in the source; their conditions may differ.

How the values were obtained:
[1] = test system: mesencephalic DAergic neurons; assay: Survival of TH-positive DAergic neurons in dissociated E14 ventral mesencephalic cell cultures (TH immunocytochemistry, cell counts); format: cell-based, rat; details: for effect on survival promoting effect of chromaffin granule protein: 30 µM in combination with chromaffin granule protein 1:50, DIV1-DIV8; for basal survival of TH-immunoreactive neurons: 30 µM, control cultures, DIV8; for survival promoting activity: concentrations up to 100 ng/ml, treated for 7 days
Procedure: (§1) Tissue culture. Mesencephalic cell cultures were essentially established as described by Krieglstein and Unsicker (1994). In brief, the ventral midbrain floor was dissected from embryonic day (E) 14 Wistar rat fetuses of two litters (20-25 embryos) and collected in CMF. Tissue pieces were enzymatically dissociated using 0.25% trypsin (BioWhittaker) in CMF for 15 min at 37°C. After addition of an equal volume of ice-cold horse serum and 1mg DNAse, Cells were triturated with fire-polished and siliconized pasteur pipettes and subsequently washed with DMEM/F12. The single cell suspension (100µl) was seeded on polyornithine (0.1 mg/ml in 15mM borate buffer, pH 8.4, Sigma)-laminin (5µg/ml; Sigma) coated glass cover slips at a density of 200.000 cells/cm^2. Coverslips were incubated in a humified 5% CO2/95% air atmosphere to allow cells to attach. After two hours coverslips were transferred to 24-well plates (Falcon) containing 750 µl medium. On the following day, and subsequently every three days, 500 µl of the medium was replaced and neurotrophic factors were added at the same time at the given concentrations.
Immunocytochemistry. To identify DAergic or serotinergic neurons cells were visualized using antibodies aginst tyrosine hydroxylase (TH), or serotonin, respectively. Cells were fixed with 4% paraformaldehyde buffered in phosphate buffered saline (PBS) for 10 min at room temperature, permeabilized with acetone at -20°C for 10 min and washed with (PBS). After blocking with 1% H2O2 in PBS, followed by 1 % horse serum, coverslips were stained with a monoclonal antibody to rat TH (1:200; Boehringer Mannheim; diluted in 1 % horse serum) or with an antibody against serotonin (1:50; DAKO) for 1 h at 37°C. Specific staining was vizualized using the anti-mouse Vectastain ABC kit in combination with DAB (Camon, Germany). For glial fibrillary acidic protein (GFAP) immunocytochemistry, cells were fixed and permeabilized using aceton at -20°C for 20 min, then washed with PBS and incubated with a monoclonal antibody against GFAP (1:100; Sigma) for 1 h at 37°C. As a secondary antibody TRITC anti-mouse-IgG was used. To monitor cell proliferation bromodesoxyuridine (BrdU) was added to the culture, 24 hours prior fixation, at a final concentration of 10 µM. Cells were washed twice with PBS and fixed with 70% ethanol buffered with 50 mM glycine, pH 2.0, for 20 min at -20°C. Incorporated BrdU was identified using anti-BrdU detection Kit I (Boehringer, Mannheim). BrdU/TH double detection was achieved by first applying the protocol for BrdU followed after another five washes with PBS and by the procedure for TH staining using TRITC anti-mouse-IgG as a secondary antibody. Nuclei were stained with propidium iodide (20 s, 0.1µg/ml). Coverslips were mounted using Aquatex (Merck, Darmstadt).
(§2) Evaluation of cell numbers. Survival of DAergic neurons was evaluated by counting all TH-positive neurons in one diagonal strips of the coverslip using 100-fold magnification. This area corresponded to 12% of the total area. Quantification was done in triplicate and in at least two independent experiments. The number of GFAP-positive cells were assessed likewise.

p185^c-erbB2 = p185^c-erbB2 (Homo sapiens, UniProt P04626); details: cited from earlier work
[2] = test system: GFAP-positive astroglial cells; assay: Induction of GFAP-positive astroglial cells in E14 mesencephalic cell cultures (GFAP immunocytochemistry); format: cell-based, rat
Procedure: as §1
Immunocytochemistry. To identify DAergic or serotinergic neurons cells were visualized using antibodies aginst tyrosine hydroxylase (TH), or serotonin, respectively. Cells were fixed with 4% paraformaldehyde buffered in phosphate buffered saline (PBS) for 10 min at room temperature, permeabilized with acetone at -20°C for 10 min and washed with (PBS). After blocking with 1% H2O2 in PBS, followed by 1 % horse serum, coverslips were stained with a monoclonal antibody to rat TH (1:200; Boehringer Mannheim; diluted in 1 % horse serum) or with an antibody against serotonin (1:50; DAKO) for 1 h at 37°C. Specific staining was vizualized using the anti-mouse Vectastain ABC kit in combination with DAB (Camon, Germany). For glial fibrillary acidic protein (GFAP) immunocytochemistry, cells were fixed and permeabilized using aceton at -20°C for 20 min, then washed with PBS and incubated with a monoclonal antibody against GFAP (1:100; Sigma) for 1 h at 37°C. As a secondary antibody TRITC anti-mouse-IgG was used. […]
as §2, with “This area corresponded to 12% of the total area.” left out
In an initial series of experiments the chromaffin granule-derived activity is analyzed by specifically blocking its putative receptor pathway. […] When cultures were treated with TGF-α, a physiological EGFR ligand in the CNS, or EGF (10 ng/ml), only few GFAP-positive astroglial cells could be detected (Fig. 12). […]

EGFR kinase = EGFR kinase (Homo sapiens, UniProt P00533); details: EGFR kinase autophosphorylation; cited from earlier work
HER1-2-kinase = HER1-2-kinase autophosphorylation; cited from earlier work
[3] = 10µM with chromaffin granule protein 1:50, six days

Sequence of EGFR kinase (P00533 25-1210): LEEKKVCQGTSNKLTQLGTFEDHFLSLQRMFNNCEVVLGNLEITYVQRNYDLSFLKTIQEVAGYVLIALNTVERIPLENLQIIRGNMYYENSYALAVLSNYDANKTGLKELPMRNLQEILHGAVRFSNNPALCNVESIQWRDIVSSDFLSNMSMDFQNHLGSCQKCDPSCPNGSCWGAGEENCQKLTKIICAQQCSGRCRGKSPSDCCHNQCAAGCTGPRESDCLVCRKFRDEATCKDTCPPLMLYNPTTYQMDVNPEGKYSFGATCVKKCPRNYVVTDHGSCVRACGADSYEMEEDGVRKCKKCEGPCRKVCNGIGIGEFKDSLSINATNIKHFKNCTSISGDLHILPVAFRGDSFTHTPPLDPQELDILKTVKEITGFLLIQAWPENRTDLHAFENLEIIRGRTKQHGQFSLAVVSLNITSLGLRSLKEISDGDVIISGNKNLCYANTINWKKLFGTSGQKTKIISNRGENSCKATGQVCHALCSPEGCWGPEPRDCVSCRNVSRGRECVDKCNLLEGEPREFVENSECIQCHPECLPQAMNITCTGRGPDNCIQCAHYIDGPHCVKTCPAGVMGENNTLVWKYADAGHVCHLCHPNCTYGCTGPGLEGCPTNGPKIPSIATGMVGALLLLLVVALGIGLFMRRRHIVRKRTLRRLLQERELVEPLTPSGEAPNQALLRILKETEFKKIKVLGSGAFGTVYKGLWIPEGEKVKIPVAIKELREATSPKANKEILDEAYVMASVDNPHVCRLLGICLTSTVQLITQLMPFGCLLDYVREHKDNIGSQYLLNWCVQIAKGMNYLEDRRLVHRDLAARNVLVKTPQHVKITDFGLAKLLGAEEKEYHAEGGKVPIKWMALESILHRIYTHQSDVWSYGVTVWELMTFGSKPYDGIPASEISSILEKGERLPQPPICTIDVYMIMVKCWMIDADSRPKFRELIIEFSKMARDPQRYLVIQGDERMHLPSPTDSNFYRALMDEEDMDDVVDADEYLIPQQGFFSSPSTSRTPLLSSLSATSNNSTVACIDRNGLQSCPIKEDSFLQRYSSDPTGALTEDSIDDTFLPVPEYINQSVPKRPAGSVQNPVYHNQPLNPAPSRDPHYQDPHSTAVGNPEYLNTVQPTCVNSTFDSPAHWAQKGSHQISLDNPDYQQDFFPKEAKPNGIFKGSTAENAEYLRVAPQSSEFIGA
Sequence of p185^c-erbB2 (P04626 23-1255): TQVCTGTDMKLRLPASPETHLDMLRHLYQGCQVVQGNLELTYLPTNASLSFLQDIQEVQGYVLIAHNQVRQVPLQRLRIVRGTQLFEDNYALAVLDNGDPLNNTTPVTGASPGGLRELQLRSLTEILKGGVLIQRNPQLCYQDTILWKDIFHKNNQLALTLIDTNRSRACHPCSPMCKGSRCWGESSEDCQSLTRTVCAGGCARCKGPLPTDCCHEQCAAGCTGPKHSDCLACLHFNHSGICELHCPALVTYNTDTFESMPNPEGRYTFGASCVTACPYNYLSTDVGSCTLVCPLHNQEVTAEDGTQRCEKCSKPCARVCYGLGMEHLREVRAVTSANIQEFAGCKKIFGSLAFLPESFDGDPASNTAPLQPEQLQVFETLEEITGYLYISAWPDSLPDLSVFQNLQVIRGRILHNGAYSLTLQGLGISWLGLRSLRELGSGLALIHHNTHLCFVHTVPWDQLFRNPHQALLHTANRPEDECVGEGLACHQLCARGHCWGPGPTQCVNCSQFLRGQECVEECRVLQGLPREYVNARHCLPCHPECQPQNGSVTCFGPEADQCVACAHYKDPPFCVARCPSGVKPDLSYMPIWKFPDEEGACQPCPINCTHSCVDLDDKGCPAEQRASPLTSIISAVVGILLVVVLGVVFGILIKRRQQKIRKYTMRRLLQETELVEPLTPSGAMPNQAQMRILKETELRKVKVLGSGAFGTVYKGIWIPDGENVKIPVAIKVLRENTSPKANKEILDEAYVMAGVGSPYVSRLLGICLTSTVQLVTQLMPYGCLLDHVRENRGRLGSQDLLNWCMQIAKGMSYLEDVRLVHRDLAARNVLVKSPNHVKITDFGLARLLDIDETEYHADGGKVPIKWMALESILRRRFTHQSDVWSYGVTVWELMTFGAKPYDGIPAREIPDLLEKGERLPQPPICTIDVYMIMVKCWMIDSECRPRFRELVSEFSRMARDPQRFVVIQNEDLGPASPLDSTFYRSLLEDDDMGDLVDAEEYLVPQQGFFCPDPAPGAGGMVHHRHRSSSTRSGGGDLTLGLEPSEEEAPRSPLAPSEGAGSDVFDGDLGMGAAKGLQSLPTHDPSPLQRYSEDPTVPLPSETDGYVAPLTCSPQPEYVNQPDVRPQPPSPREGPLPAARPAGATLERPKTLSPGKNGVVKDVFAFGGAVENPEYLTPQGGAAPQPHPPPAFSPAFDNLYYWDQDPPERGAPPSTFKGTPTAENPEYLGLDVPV

Molecule: NC(CCCC(=O)O)C(=O)O (stereo not drawn) [AA, α-aminoadipic acid]
- effect on survival promoting effect of chromaffin granule protein [1]: abolished the survival promoting affect of chromaffin granule protein
- basal survival of TH-immunoreactive neurons [1]: without affecting basal survival

Molecule: O=C1NC(=O)c2cc(Nc3ccccc3)c(Nc3ccccc3)cc21 [DAPH, 4,5-Dianilinophthalimide]
- effect on survival of DAergic neurons induced by chromaffin granule activity [1, 3]: inhibited
- p185^c-erbB2 autophosphorylation (p185^c-erbB2): inhibits
- effect on FGF-2-mediated induction of astroglial cells ([2]; 10 µM with FGF-2 at 10 ng/ml, DIV 6): could not be affected by this inhibitor
- effect on appearence of astroglial cell induced by the chromaffin granule activity [2, 3]: inhibited
- effect on appearance of GFAP-positive astroglial cells in TGF-α or EGF treated cultures ([2]; 10 µM, DIV 6): effectively blocked

Molecule: O=c1[nH]c(=O)n([C@H]2C[C@H](O)[C@@H](CO)O2)cc1F [FDUR, 5-fluorodeoxyuridine]
- effect on survival promoting effect of chromaffin granule protein [1]: abolished the survival promoting affect of chromaffin granule protein
- basal survival of TH-immunoreactive neurons [1]: without affecting basal survival

Molecule: N#C/C(=C\c1ccc(O)c(O)c1)C(=O)NCCCCc1ccccc1 [Tyrphostin B56]
- IC50 (EGFR kinase): 5 µM
- IC50 (HER1-2-kinase): > 500 µM
- effect on chromaffin granule protein-induced appearence of astroglial cells ([2]; 10µM Tyrphostin B56 with chromaffin granule protein 1:50): successfully inhibited; also recorded: fully blocked the effect of granule protein on mesencephalic glia

Molecule: C[N+](C)(C)CCOC(N)=O [carbachol]
- survival of TH-positive neurons ([1]; culture medium containing carbachol (10^-5 M), DIV 8): uneffective

Molecule: Leu-enkephalin
- survival promoting activity [1]: none of these neuropeptides had any survival promoting activity

Molecule: Met-enkephalin
- survival promoting activity [1]: none of these neuropeptides had any survival promoting activity

Molecule: neuropeptide Y
- survival promoting activity [1]: none of these neuropeptides had any survival promoting activity
